Values of other authors, collected in EP3599609A1, “SYSTEM AND METHOD FOR CLEANING NOISY GENETIC DATA AND USING DATA TO MAKE PREDICTIONS” (Natera, Inc., priority 2005, dated 2007).

Settings: colon cancer patients treated with irinotecan

severe diarrhea, patients affected: 31%
severe neutropenia, patients affected: 28%
SMILES: CCc1c2c(nc3ccc(OC(=O)N4CCC(N5CCCCC5)CC4)cc13)-c1cc3c(c(=O)n1C2)COC(=O)[C@]3(O)CC [irinotecan]
